Experimental data: ChEMBL document CHEMBL1201862, “PubChem BioAssay data set” (2004)
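Results reflect a 48-hour exposure of cells in 96-well plates to compound at five concentrations. Here, GI50 denotes the concentration required for 50% inhibition of growth.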 The source made the active and inactive calls. Cut-off read from the data, not from the text of the source: active = GI50 up to about 1.1 µM and inactive = higher.

Columns and labels:
Test in all cases: NCI-60 cell line screen, 48 h
786-0 = test system: 786-0
A498 = test system: A498
A549 = test system: A549
ACHN = test system: ACHN
BT-549 = test system: BT-549
CAKI-1 = test system: CAKI-1
CCRF-CEM = test system: CCRF-CEM
COLO 205 = test system: COLO 205
DU-145 = test system: DU-145
EKVX = test system: EKVX
HCC 2998 = test system: HCC 2998
HCT-116 = test system: HCT-116
HCT-15 = test system: HCT-15
HL-60 = test system: HL-60
HOP-62 = test system: HOP-62
HOP-92 = test system: HOP-92
HT-29 = test system: HT-29
Hs-578T = test system: Hs-578T
IGROV-1 = test system: IGROV-1
K562 = test system: K562
KM12 = test system: KM12
LOX IMVI = test system: LOX IMVI
M14 = test system: M14
MCF7 = test system: MCF7
MDA-MB-231 = test system: MDA-MB-231
MDA-MB-435 = test system: MDA-MB-435
MDA-N = test system: MDA-N
MOLT-4 = test system: MOLT-4
NCI-H226 = test system: NCI-H226
NCI-H23 = test system: NCI-H23
NCI-H460 = test system: NCI-H460
NCI-H522 = test system: NCI-H522
NCI/ADR-RES = test system: NCI/ADR-RES
OVCAR-3 = test system: OVCAR-3
OVCAR-5 = test system: OVCAR-5
OVCAR-8 = test system: OVCAR-8
PC-3 = test system: PC-3
RPMI-8226 = test system: RPMI-8226
RXF 393 = test system: RXF 393
SF-268 = test system: SF-268
SF-295 = test system: SF-295
SF-539 = test system: SF-539
SK-MEL-28 = test system: SK-MEL-28
SK-MEL-2 = test system: SK-MEL-2
SK-MEL-5 = test system: SK-MEL-5
SN12C = test system: SN12C
SNB-19 = test system: SNB-19
SNB-75 = test system: SNB-75
SR = test system: SR
SW-620 = test system: SW-620
T47D = test system: T47D
TK-10 = test system: TK-10
U-251 = test system: U-251
UACC-257 = test system: UACC-257
UACC-62 = test system: UACC-62
UO-31 = test system: UO-31

O=C(/C=C/c1ccccc1)c1cc(CN2CCOCC2)c(O)c(CN2CCOCC2)c1
GI50 (786-0): 9.42 µM (inactive) | GI50 (A498): 12.9 µM (inactive) | GI50 (A549): 17.9 µM (inactive) | GI50 (ACHN): 2.32 µM (inactive) | GI50 (BT-549): 28 µM (inactive) | GI50 (CAKI-1): 2.26 µM (inactive) | GI50 (CCRF-CEM): 2.71 µM (inactive) | GI50 (COLO 205): 11.3 µM (inactive) | GI50 (DU-145): 16 µM (inactive) | GI50 (EKVX): 25.3 µM (inactive) | GI50 (HCC 2998): 18.6 µM (inactive) | GI50 (HCT-116): 12.6 µM (inactive) | GI50 (HCT-15): 7.5 µM | GI50 (HL-60): 4.57 µM (inactive) | GI50 (HOP-62): 16.8 µM (inactive) | GI50 (HOP-92): 12.1 µM (inactive) | GI50 (HT-29): 17.4 µM (inactive) | GI50 (Hs-578T): 35.6 µM (inactive) | GI50 (IGROV-1): > 100 µM (inactive) | GI50 (K562): 5.47 µM (inactive) | GI50 (KM12): 15.5 µM (inactive) | GI50 (LOX IMVI): 4.65 µM (inactive) | GI50 (M14): 17.9 µM (inactive) | GI50 (MCF7): 14.7 µM (inactive) | GI50 (MDA-MB-231): 18.2 µM (inactive) | GI50 (MDA-MB-435): 14.5 µM (inactive) | GI50 (MDA-N): 19.7 µM (inactive) | GI50 (MOLT-4): 16.7 µM (inactive) | GI50 (NCI-H226): 26.6 µM (inactive) | GI50 (NCI-H23): 22.5 µM (inactive) | GI50 (NCI-H460): 6.71 µM (inactive) | GI50 (NCI-H522): > 100 µM (inactive) | GI50 (NCI/ADR-RES): 25.5 µM (inactive) | GI50 (OVCAR-3): 12.2 µM (inactive) | GI50 (OVCAR-5): 14.6 µM (inactive) | GI50 (OVCAR-8): 25.2 µM (inactive) | GI50 (PC-3): 19.2 µM (inactive) | GI50 (RPMI-8226): 4.55 µM (inactive) | GI50 (RXF 393): 14.1 µM (inactive) | GI50 (SF-268): 19.1 µM (inactive) | GI50 (SF-295): 19.1 µM (inactive) | GI50 (SF-539): 15.1 µM (inactive) | GI50 (SK-MEL-28): 14.5 µM (inactive) | GI50 (SK-MEL-2): 23.4 µM (inactive) | GI50 (SK-MEL-5): 13.1 µM (inactive) | GI50 (SN12C): 11.9 µM (inactive) | GI50 (SNB-19): 94 µM (inactive) | GI50 (SNB-75): 19.3 µM (inactive) | GI50 (SR): 5.51 µM (inactive) | GI50 (SW-620): 12.3 µM (inactive) | GI50 (T47D): 20 µM (inactive) | GI50 (TK-10): 20.6 µM (inactive) | GI50 (U-251): 4.51 µM (inactive) | GI50 (UACC-257): 14.3 µM (inactive) | GI50 (UACC-62): 17 µM (inactive) | GI50 (UO-31): 15.4 µM (inactive)
